This note sets out measurements from US8362249B2, “CXCR3 receptor antagonists” (Boehringer Ingelheim International GmbH, priority 2009, dated 2013).

In the experiment the target is CXCR3 (Macaca fascicularis, UniProt A0A2K5UV19). As to the kind of experiment: functional cellular assay measuring calcium flux in CXCR3 transfected cells (block of CXCR3/IP-10 interaction). Format: cell-based. The settings on record: IP-10 induced intracellular calcium flux; Cyno-CHO cells stably expressing recombinant CXCR3 and G-alpha-16. In short, it runs like this: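 Cyno-CHO cells stably co-expressing recombinant CXCR3 and G-alpha-16, loaded with Ca-4 dye (HBSS, 10 mM HEPES pH 7.4, 2 mM probenecid) for 1 h at 37 °C. Compound (10 microM final) preincubated 15 min at room temperature, then IP-10 added at EC80. Intracellular calcium flux read by fluorescence (ex 480/em 540 nm).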
In general terms: A change in cytosolic calcium serves as a functional read-out for many receptors and channels.

Chain of CXCR3 (A0A2K5UV19 entry or part of it): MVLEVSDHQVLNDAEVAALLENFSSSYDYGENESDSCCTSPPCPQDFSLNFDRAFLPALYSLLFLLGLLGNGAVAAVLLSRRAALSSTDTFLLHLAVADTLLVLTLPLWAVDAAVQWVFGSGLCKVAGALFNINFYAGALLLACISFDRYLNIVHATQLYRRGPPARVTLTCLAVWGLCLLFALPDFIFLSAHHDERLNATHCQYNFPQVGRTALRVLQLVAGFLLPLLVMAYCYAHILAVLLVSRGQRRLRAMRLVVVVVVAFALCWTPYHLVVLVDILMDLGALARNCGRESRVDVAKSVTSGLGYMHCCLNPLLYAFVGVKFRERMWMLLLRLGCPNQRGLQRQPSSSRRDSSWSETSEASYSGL

Take `O=C(NCC(=O)N1CCN(c2ccccc2C(=O)Nc2cccnc2)CC1)c1ccc2c(c1)OCO2` [Benzo[1,3]dioxole-5-carboxylic acid (2-oxo-2-{4-[2-(pyridin-3-ylcarbamoyl)-phenyl]-piperazin-1-yl}-ethyl)-amide]: the IC50 (as a rule, the midpoint of a concentration-inhibition curve) is 13.3 nM.

For the compound `Cc1cc(C)n(CC(=O)N2CCN(c3ccccc3C(=O)Nc3cccc(S(=O)(=O)N(C)C)c3)CC2)n1` [2-{4-[2-(3,5-Dimethyl-pyrazol-1-yl)-acetyl]-piperazin-1-yl}-N-(3-dimethylsulfamoyl-phenyl)-benzamide], the IC50 stood at 17 nM.

As for `Cc1cc(C)n(CC(=O)N2CCN(c3ccccc3C(=O)Nc3ccnnc3)CC2)n1` [2-{4-[2-(3,5-Dimethyl-pyrazol-1-yl)-acetyl]-piperazin-1-yl}-N-pyridazin-4-yl-benzamide], the IC50 stood at 17 nM.

Take `Cc1cc(C)n(CC(=O)N2CCN(c3ccccc3C(=O)Nc3cnc4c(c3)c(C)nn4C)CC2)n1` [N-(1,3-Dimethyl-1H-pyrazolo[3,4-b]pyridin-5-yl)-2-{4-[2-(3,5-dimethyl-pyrazol-1-yl)-acetyl]-piperazin-1-yl}-benzamide]: the IC50 stood at 8.7 nM.

Take `Cc1cc(C)n(CC(=O)N2CCN(c3ccccc3C(=O)Nc3ccnc(Br)c3)CC2)n1` [N-(2-Bromo-pyridin-4-yl)-2-{4-[2-(3,5-dimethyl-pyrazol-1-yl)-acetyl]-piperazin-1-yl}-benzamide]: the half-inhibitory concentration (IC50) is 4.1 nM.

For `COc1cc(NC(=O)c2ccccc2N2CCN(C(=O)CN3CCCCC3=O)CC2)ccn1` [N-(2-Methoxy-pyridin-4-yl)-2-{4-[2-(2-oxo-piperidin-1-yl)-acetyl]-piperazin-1-yl}-benzamide], the IC50 came out at 4.4 nM.

Regarding `Cc1cc(NC(=O)c2ccccc2N2CCN(C(=O)Cn3nc(C)cc3C)CC2)ccn1` [2-{4-[2-(3,5-Dimethyl-pyrazol-1-yl)-acetyl]-piperazin-1-yl}-N-(2-methyl-pyridin-4-yl)-benzamide], the IC50 amounted to 12.5 nM.

With `O=C(Nc1ccncc1)c1ccccc1N1CCN(C(=O)Cn2ncc3ccccc3c2=O)CC1` [2-{4-[2-(1-Oxo-1H-phthalazin-2-yl)-acetyl]-piperazin-1-yl}-N-pyridin-4-yl-benzamide], the concentration for half-maximal inhibition (IC50) came to 6.1 nM.

As for `Cc1cc(C)n(CC(=O)N2CCN(c3ncc(Cl)cc3NC(=O)c3cccc(Cl)c3)CC2)n1` [3-Chloro-N-(5-chloro-2-{4-[2-(3,5-dimethyl-pyrazol-1-yl)-acetyl]-piperazin-1-yl}-pyridin-3-yl)-benzamide], the IC50 was determined as 11.5 nM.

For `Cc1cc(C)n(CC(=O)N2CC=C(c3ccc(Cl)cc3NC(=O)c3cccc(Cl)c3)CC2)n1` [3-Chloro-N-(5-chloro-2-{1-[2-(3,5-dimethyl-pyrazol-1-yl)-acetyl]-1,2,3,6-tetrahydro-pyridin-4-yl}-phenyl)-benzamide], the half-maximal inhibitory concentration (IC50) is 7 nM.

As to `Cc1cc(C)n(CC(=O)N2CCN(c3ccccc3C(=O)Nc3cccnc3)CC2)n1` [2-{4-[2-(3,5-Dimethyl-pyrazol-1-yl)-acetyl]-piperazin-1-yl}-N-pyridin-3-yl-benzamide], the IC50 is 6.6 nM.

For the compound `Cc1cc(C)n(CC(=O)N2CCN(c3ccccc3C(=O)Nc3ccnc(OCC(F)(F)F)c3)CC2)n1` [2-{4-[2-(3,5-Dimethyl-pyrazol-1-yl)-acetyl]-piperazin-1-yl}-N-[2-(2,2,2-trifluoro-ethoxy)-pyridin-4-yl]-benzamide], the IC50 is 8.8 nM.

Consider `O=C(NCC(=O)N1CCN(c2ccccc2C(=O)Nc2cccnc2)CC1)c1ccccc1` [2-[4-(2-Benzoylamino-acetyl)-piperazin-1-yl]-N-pyridin-3-yl-benzamide], for which the IC50 was determined as 7.6 nM.

For `Cc1cc(C)n(CC(=O)N2CCN(c3ccccc3C(=O)Nc3ccnc(C(C)(C)C)c3)CC2)n1` [N-(2-tert-Butyl-pyridin-4-yl)-2-{4-[2-(3,5-dimethyl-pyrazol-1-yl)-acetyl]-piperazin-1-yl}-benzamide], the IC50 worked out at 8.5 nM.

With `COc1cc(NC(=O)c2ccccc2N2CCN(C(=O)Cn3nc(C)cc3C)CC2)ccn1` [2-{4-[2-(3,5-Dimethyl-pyrazol-1-yl)-acetyl]-piperazin-1-yl}-N-(2-methoxy-pyridin-4-yl)-benzamide], the 50% inhibitory concentration (IC50) is 8.5 nM.

On to `COc1cc(NC(=O)c2ccccc2N2CCN(C(=O)CN3Cc4ccccc4C3=O)CC2)ccn1` [N-(2-Methoxy-pyridin-4-yl)-2-{4-[2-(1-oxo-1,3-dihydro-isoindol-2-yl)-acetyl]-piperazin-1-yl}-benzamide], for which the 50% inhibitory concentration (IC50) was determined as 3.4 nM.

Take `Cn1cccc1C(=O)NCC(=O)N1CCN(c2ccccc2C(=O)Nc2cccnc2)CC1` [1-Methyl-1H-pyrrole-2-carboxylic acid (2-oxo-2-{4-[2-(pyridin-3-ylcarbamoyl)-phenyl]-piperazin-1-yl}-ethyl)-amide]: the half-inhibitory concentration (IC50) was determined as 12 nM.

Regarding `Cc1ccc(NC(=O)c2ccccc2N2CCN(C(=O)Cn3ccc4cccnc43)CC2)cn1` [N-(6-Methyl-pyridin-3-yl)-2-[4-(2-pyrrolo[2,3-b]pyridin-1-yl-acetyl)-piperazin-1-yl]-benzamide], the IC50 stood at 6.8 nM.

Consider `Cc1cc(C)n(CC(=O)N2CCN(c3ccccc3C(=O)Nc3cncc(O)c3)CC2)n1` [2-{4-[2-(3,5-Dimethyl-pyrazol-1-yl)-acetyl]-piperazin-1-yl}-N-(5-hydroxy-pyridin-3-yl)-benzamide], for which the IC50 came to 12.5 nM.

For the compound `Cc1cc(C)n(CC(=O)N2CCN(c3ccccc3C(=O)Nc3cnc4ccccc4c3)CC2)n1` [2-{4-[2-(3,5-Dimethyl-pyrazol-1-yl)-acetyl]-piperazin-1-yl}-N-quinolin-3-yl-benzamide], the IC50 is 4.8 nM.

For `Cc1cc(C)n(CC(=O)N2CCN(c3ccccc3C(=O)Nc3nc4ccccc4s3)CC2)n1` [N-Benzothiazol-2-yl-2-{4-[2-(3,5-dimethyl-pyrazol-1-yl)-acetyl]-piperazin-1-yl}-benzamide], the IC50 was 5.9 nM.

As for `CN1CCc2nc(NC(=O)c3cc(F)ccc3N3CCN(C(=O)CN4Cc5ccccc5C4=O)CC3)sc2C1` [5-Fluoro-N-(5-methyl-4,5,6,7-tetrahydro-thiazolo[5,4-c]pyridin-2-yl)-2-{4-[2-(1-oxo-1,3-dihydro-isoindol-2-yl)-acetyl]-piperazin-1-yl}-benzamide], the half-maximal inhibitory concentration (IC50) came to 8.1 nM.

As for `O=C(Nc1ccncc1)c1ccccc1N1CCN(C(=O)Cc2noc3ccccc23)CC1` [2-[4-(2-Benzo[d]isoxazol-3-yl-acetyl)-piperazin-1-yl]-N-pyridin-4-yl-benzamide], the IC50 stood at 6.6 nM.

Regarding `Cc1cc(C)n(CC(=O)N2CCN(c3ccccc3NC(=O)c3ccc(Cl)nc3)CC2)n1` [6-Chloro-N-(2-{4-[2-(3,5-dimethyl-pyrazol-1-yl)-acetyl]-piperazin-1-yl}-phenyl)-nicotinamide], the IC50 stood at 15 nM.

Consider `Cc1cc(C)n(CC(=O)N2CCN(c3ccccc3C(=O)Nc3ccc(-c4ccccc4)nc3)CC2)n1` [2-{4-[2-(3,5-Dimethyl-pyrazol-1-yl)-acetyl]-piperazin-1-yl}-N-(6-phenyl-pyridin-3-yl)-benzamide], for which the 50% inhibitory concentration (IC50) is 11.5 nM.

On to `CN(CC(=O)N1CCN(c2ccccc2C(=O)Nc2ccncc2)CC1)C(=O)c1cccn1C` [1-Methyl-1H-pyrrole-2-carboxylic acid methyl-(2-oxo-2-{4-[2-(pyridin-4-ylcarbamoyl)-phenyl]-piperazin-1-yl}-ethyl)-amide], for which the concentration for half-maximal inhibition (IC50) turned out to be 6.5 nM.

In the case of `Cc1cc(C(=O)NCC(=O)N2CCN(c3ccccc3C(=O)Nc3ccncc3)CC2)n(C)n1` [2,5-Dimethyl-2H-pyrazole-3-carboxylic acid (2-oxo-2-{4-[2-(pyridin-4-ylcarbamoyl)-phenyl]-piperazin-1-yl}-ethyl)-amide], the IC50 came to 5.4 nM.

For the compound `CCn1nc(C)cc1C(=O)NCC(=O)N1CCN(c2ccccc2C(=O)Nc2cccnc2)CC1` [2-Ethyl-5-methyl-2H-pyrazole-3-carboxylic acid (2-oxo-2-{4-[2-(pyridin-3-ylcarbamoyl)-phenyl]-piperazin-1-yl}-ethyl)-amide], the half-maximal inhibitory concentration (IC50) was 18 nM.

As for `N#Cc1ccc(NC(=O)c2ccccc2N2CCN(C(=O)Cn3ccc4cccnc43)CC2)cn1` [N-(6-Cyano-pyridin-3-yl)-2-[4-(2-pyrrolo[2,3-b]pyridin-1-yl-acetyl)-piperazin-1-yl]-benzamide], the IC50 came out at 6.3 nM.

Turning to `COc1ccc(C(=O)NCC(=O)N2CCN(c3ccccc3C(=O)Nc3cccnc3)CC2)cc1` [4-Methoxy-N-(2-oxo-2-{4-[2-(pyridin-3-ylcarbamoyl)-phenyl]-piperazin-1-yl}-ethyl)-benzamide], the half-inhibitory concentration (IC50) is 16 nM.

In the case of `Cc1cc(C)n(CC(=O)N2CCN(c3ccccc3C(=O)Nc3cc(C(C)(C)C)n[nH]3)CC2)n1` [N-(5-tert-Butyl-2H-pyrazol-3-yl)-2-{4-[2-(3,5-dimethyl-pyrazol-1-yl)-acetyl]-piperazin-1-yl}-benzamide], the IC50 came to 4.8 nM.

Consider `Cc1cc(C)n(CC(=O)N2CCN(c3ccccc3C(=O)Nc3cncc(F)c3)CC2)n1` [2-{4-[2-(3,5-Dimethyl-pyrazol-1-yl)-acetyl]-piperazin-1-yl}-N-(5-fluoro-pyridin-3-yl)-benzamide], for which the IC50 was determined as 10.8 nM.

Turning to `Cc1cc(C)n(CC(=O)N2CCN(c3ccccc3C(=O)Nc3ccc(S(C)(=O)=O)cc3)CC2)n1` [2-{4-[2-(3,5-Dimethyl-pyrazol-1-yl)-acetyl]-piperazin-1-yl}-N-(4-methanesulfonyl-phenyl)-benzamide], the 50% inhibitory concentration (IC50) amounted to 8.8 nM.

`Cc1cc(C)n(CC(=O)N2CCN(c3ccccc3C(=O)Nc3nc4ccc(S(C)(=O)=O)cc4s3)CC2)n1` [2-{4-[2-(3,5-Dimethyl-pyrazol-1-yl)-acetyl]-piperazin-1-yl}-N-(6-methanesulfonyl-benzothiazol-2-yl)-benzamide]: the IC50 is 6.6 nM.

For the compound `CS(=O)(=O)c1ccc(NC(=O)c2ccccc2N2CCN(C(=O)Cn3ccc4cccnc43)CC2)cc1` [N-(4-Methanesulfonyl-phenyl)-2-[4-(2-pyrrolo[2,3-b]pyridin-1-yl-acetyl)-piperazin-1-yl]-benzamide], the IC50 stood at 7.4 nM.
